Test results taken from US8232407B2, “Nitrogenous heterocyclic compounds with insecticidal activity, and the preparation and use thereof” (East China University of Science and Technology, priority 2008, dated 2012).

Experiments:
Type in all cases: in vivo
Conditions in all cases: in vivo
Aphis craccivoral = experiment: Insecticidal activities to aphids, immersion method
Outline: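 Immersion assay: compound diluted from 10 g/L DMF stock to 500 ppm in 0.2 mL/L Triton X-100, sprout-feeding wingless adults dipped 5 s. Kept at 23° C, three repeats; 24 h mortality calculated relative to surviving Triton-treated controls.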

Plutella xylostella = experiment: Insecticidal activities to diamondback moth, feeding dipped leaves
Method: (§1) Mortality (%)=(the number of the survival aphis in control group−the number of the survival aphis in the treatment group)/the number of the survival aphis in control group×100%
(4): Insecticidal Activities to Diamondback Moth
Diamondback moth (Plutella xylostella) was tested by the way of feeding dippedleaves. Fresh cabbage leaves were immersed in above mentioned solution for 3 seconds, dried at room temperature, and fed to the tested insects. Each treatment was tested with 10 insects and repeated for 3 tumblers (3 times), while water was used as control. The number of killed insects was counted after 24 hours to calculate the mortality according to the above mentioned formula.

Nilaparvata lugens = experiment: Insecticidal activities to plant hopper, spraying method
Outline: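 Spray test: acetone solutions of 500 down to 0.79 ppm, 2 ml per tumbler holding 10 planthoppers introduced 6 h earlier, triplicate, aqueous acetone as control. Mortality at 24 h calculated from survivors relative to control.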

[1] = tested on: Pseudaletia separate Walker; experiment: Insecticidal activities to armyworm, leaf dipping and feeding
Method: as §1
(3): Insecticidal Activities to Armyworm
Armyworm (Pseudaletia separate Walker) was tested by the way of leaf dipping and feeding. The test compound was exactly formulated with acetone into solutions having concentrations of 500, 250, 100, 50, 25, 12.5, 6.25, 3.13 and 1.57 ppm, respectively. Aqueous acetone solution was used as control. Fresh maize leaves were immersed in the solution for 3 seconds, dried at room temperature, and fed to the tested insects. Each treatment was tested with 10 insects and repeated for 3 tumblers (3 times). The number of killed insects was counted after 24 hours to calculate the mortality according to the above mentioned formula.

Compound | Aphis craccivoral Mortality (%) 500 ppm (Aphis craccivoral) [%] | Plutella xylostella Mortality (%) 500 ppm (Plutella xylostella) [%] | Nilaparvata lugens Mortality (%) 500 ppm (Nilaparvata lugens) [%] | Pseudaletia separate Walker Mortality (%) 500 ppm [1] [%]
Cn1cccc1C=C(C1=[N+](C)CCN1Cc1ccc(Cl)nc1)[N+](=O)[O-].[Cl-] [Compound 275] | 100 | 100 | 100 | 100
O=[N+]([O-])C(=Cc1ccc(CO)o1)C1=NCCN1CC1CCOC1 (stereo not drawn) [Compound 102] | 75 | 97 | 89 | 89
O=[N+]([O-])C(=Cc1cnc(Cl)s1)C1=NCCN1Cc1ccc(Cl)nc1 [Compound 35] | 100 | 100 | 100 | 100
O=[N+]([O-])C(=Cc1cncs1)C1=NCCN1Cc1ccc(Cl)nc1 [Compound 34] | 100 | 100 | 100 | 100
N#CC(=Cc1ccoc1)C1=NCCN1Cc1ccc(Cl)nc1 [Compound 141] | 100 | 100 | 100 | 100
C[N+]1=C(C(=Cc2cc(Br)c(Br)s2)[N+](=O)[O-])N(Cc2ccc(Cl)nc2)CC1.[Cl-] [Compound 268] | 100 | 100 | 100 | 100
O=[N+]([O-])C(=Cc1ccoc1)C1=NCCN1CC1CCOC1 (stereo not drawn) [Compound 92] | 80 | 100 | 100 | 100
CCc1ccc(C=C(C2=[N+](C)CCN2Cc2ccc(Cl)nc2)[N+](=O)[O-])o1.[Cl-] [Compound 257] | 100 | 100 | 100 | 100
O=[N+]([O-])C(=Cc1cccs1)C1=NCCN1Cc1cnc(Cl)s1 [Compound 83] | 100 | 100 | 100 | 100
CC(=C(C1=NCCN1Cc1ccc(Cl)nc1)[N+](=O)[O-])c1ccc([N+](=O)[O-])o1 [Compound 113] | 80 | 100 | 100 | 100
CCc1ccc(C(C)=C(C2=NCCN2Cc2ccc(Cl)nc2)[N+](=O)[O-])o1 [Compound 115] | 93 | 96 | 100 | 79
CC[N+]1=C(/C(=C\c2ccc[nH]2)[N+](=O)[O-])N(Cc2ccc(Cl)nc2)CC1.[Cl-] [Compound 295] | 100 | 100 | 100 | 100
CCc1ccc(C=C(C2=NCCN2Cc2ccc(Cl)nc2)[N+](=O)[O-])o1 [Compound 14] | 100 | 100 | 100 | 100
O=[N+]([O-])C(=Cc1cc(Cl)co1)C1=NCCCN1Cc1ccc(Cl)nc1 [Compound 51] | 100 | 100 | 100 | 100
N#CC(=Cc1cccs1)C1=NCCN1Cc1ccc(Cl)nc1 [Compound 146] | 100 | 100 | 100 | 100
